Laboratory results as given in patent publication US11590163B2, “Iron-fortified food composition” (SOCIETE DES PRODUITS NESTLE S.A., priority 2017, dated 2023).

What was measured:
[1] = Colour change in iron-fortified bouillon (CIELAB ΔEab*); assay type: physicochemical; conditions: chicken bouillon containing curcumin, approx. 5.5 mg iron per 6.55 g powder, reconstituted in 250 mL boiling water, 60° C. min. 30 minutes; vs bouillon with no iron
Experimental: Commercial Maggi Chicken Bouillon (Nestle Nigeria) containing curcumin was iron fortified by the addition of iron (III) complexes from Example 1, as well as ferrous sulphate (Dr. P. Lohmann GmbH KG) Ref1, and […] (Dr. P. Lohmann GmbH KG) Ref2. The amounts were chosen to provide approximately 5.5 mg of iron per 6.55 g of bouillon powder. A further sample without iron fortification was also prepared in the same manner. All samples were reconstituted in 250 mL of boiling water and kept at 60° C. for a minimum of 30 minutes.
Colour measurements were performed in 2.6×1 cm quartz cuvettes using an XRite ColorEye 7000A colorimeter. The colorimeter was set up with a D65 light source, 10 degree observer angle, specular component included and Large area View (LAV). The colour difference between the beverage with no iron salt and the iron-fortified beverages was measured for each material and expressed as ΔEab* using the CIELAB colour scale (Table 2).

[2] = Human stable-isotope iron bioavailability study (erythrocyte incorporation); assay type: in vivo; conditions: healthy adult women
Experimental: Clinical trials were performed on fortified chicken bouillon and fortified chicken bouillon with corn flour to simulate inhibitory conditions. The trial was performed by ETH Zurich (Switzerland). The study was a controlled, single blind, single centre, and randomized cross-over trial in 22 healthy adult women, with each woman serving as their own control. Each participant consumed 6 different types of investigational products: bouillon respectively bouillon with maize porridge fortified either with PA:^58Fe:HCP, ^54FeSO4, (Ref1-labelled) or ^57FePP (Ref2-labelled). The PA:^58Fe:HCP complex was prepared as Example 1 sample 9 apart from the use of ^58Fe. The order of test meal administration was randomly assigned. […]
Fractional iron absorption (FIA) was calculated based on the measured shift of iron isotope ratios in the blood 14 days after the test meal administrations, from the blood samples collected on days 1, 17 and 35. […] The amounts of ^54Fe, ^57Fe and ^58Fe in the blood were calculated on the principle of isotope dilution by considering that iron isotopic labels are not mono-isotopic. Circulating iron was calculated based on blood volume and hemoglobin concentration. Blood volume was indirectly measured based on height and weight and calculated using the formula proposed by Brown et al [E. Brown et al., The Journal of clinical investigation, 41:21, 82-90.(1962)]. […]

Structure (SMILES) | Δ E [1] | fractional iron absorption ([2]; in bouillon plus maize meal rich in phytate) | fractional iron absorption ([2]; in bouillon)
O=S(=O)([O-])[O-].[Fe+2] [Ref1, ferrous sulphate] | 15.2 |  | 
O=S(=O)([O-])[O-].[54Fe+2] [^54FeSO4] |  | 3.6% | 24.6%
